Numbered stars: 1 amine (or outer) side, 2 acyl side, 3 side chain; on linkers, the order of the positions; unused ones are H or OH. Bridge positions count the residues as written; N and C are the ends. Square brackets hold non-standard residues; d marks the D form. Peptide text beside a SMILES is read from it. Pen = CC(C)(S)[C@H](N)C(=O)O; hCys = N[C@@H](CCS)C(=O)O; Orn = NCCC[C@H](N)C(=O)O; Dab = NCC[C@H](N)C(=O)O; Dap = NC[C@H](N)C(=O)O; X1 = O=C(C[*:1])[*:2]; X2 = O=C(C[*:2])[*:1]
What was measured:
human integrin αvβ5 = human integrin αvβ5 (Homo sapiens, UniProt P06756+P18084); test: Evaluation of integrin binding property (surface plasmon resonance, Biacore 3000, immobilized cyclic peptide); details: peptide immobilized on CM5 sensor chip; human integrin αvβ5 30-1,000 nM, 25° C., HEPES buffer with 5 mM magnesium chloride; read-out: Integrin binding property (dissociation constant)
Procedure: A commercially available CM5 sensor chip (a carboxymethyl dextran introduction type, manufactured by GE Healthcare) was set in a surface plasmon resonance apparatus (product name: Biacore 3000, manufactured by GE Healthcare), the sensor was stabilized at a flow rate of 10 μL/min of a 4-(2-hydroxyethyl)-1-piperazineethanesulfonic acid (HEPES) buffer solution (20 mM HEPES-HCl, 150 mM NaCl, pH 7.4) for surface plasmon resonance (SPR), and 70 μL of a mixed aqueous solution of 0.2 M 1-(3-dimethylaminopropyl)-3-ethylcarbodiimide (EDC) and 0.04 M N-hydroxysuccinimide (NHS) was added thereto. Then, 300 μL of the sample solution of each of the above cyclic peptides diluted to 0.2 g/L with the HEPES buffer solution was supplied to the sensor chip, blocking treatment was subsequently carried out with an ethanolamine solution, and washing was carried out with a sodium hydroxide aqueous solution, whereby immobilization was carried out. However, only for the cyclic peptide 22, in which the number of lysine residues having an amino group as the immobilizing functional group was 1, the sample solution to be supplied to the sensor chip was set to 5,000 μL instead of 300 μL. Similarly; 70 μL of the mixed aqueous solution of 0.2 M EDC and 0.04 M NHS was added to another flow channel of the same sensor chip without immobilizing the sample, and then blocking treatment and washing treatment were carried out. Hereinafter, the obtained immobilization-treated sensor chip is referred to as an “immobilization-treated sensor chip A”.
After adding human integrin αvβ5 for 10 minutes at 25° C., which was diluted to 30 nM using a HEPES buffer solution to which magnesium chloride was added to 5 mM, in each flow channel of the immobilization-treated sensor chip A prepared in (1) above, the same HEPES buffer solution (containing 5 mM magnesium chloride) was allowed to flow as a running buffer for 30 minutes, and measurement was carried out with Biacore 3000.
Then, a regeneration treatment of removing human integrin αvβ5 was carried out by allowing a 0.5 M EDTA aqueous solution to flow through each flow channel for 10 minutes. Further, the above-described measurement process consisting of adding integrin for 10 minutes, allowing a running buffer to flow for 30 minutes, carrying out measurement with Biacore 3000, and carrying out regeneration treatment with 0.5 M EDTA aqueous solution was carried out in the same manner for 100 nM human integrin αvβ5, 300 nM human integrin αvβ5, and 1,000 nM human integrin αvβ5. Dissociation constant between the cyclic peptide and human integrin αvβ5 was calculated from the difference between the value measured by Biacore 3000 in the flow channel immobilized with the cyclic peptide and the value measured by Biacore 3000 in the flow channel unimmobilized with the cyclic peptide, in a case where each concentration of human integrin αvβ5 was allowed to flow; and the integrin binding property was evaluated according to the following evaluation standards. It is preferable that the evaluation result satisfies the evaluation standard A, B, or C.

[1] = Evaluation of molecule stability (alkali treatment, LC/MS residual rate); format: physicochemical; details: 500 μM peptide plus equivalent of 1 M sodium hydroxide, 15° C., 20 minutes, LC/MS peak area
Procedure: The molecule stability of the cyclic peptide was evaluated by analyzing the alkali-treated cyclic peptide aqueous solution by liquid chromatography mass spectroscopy (LC/MS).
The alkali treatment was carried out by the following method. A 500 μM cyclic peptide aqueous solution was prepared, an equivalent of 1 M sodium hydroxide aqueous solution was added to this aqueous solution, and the resultant mixture was incubated at 15° C. for 20 minutes to obtain an alkali-treated cyclic peptide aqueous solution. The cyclic peptide residual rate was calculated by setting the total area of all peaks of the cyclic peptide before alkali treatment in LC/MS to 100% and determining the proportion of the total area of all peaks in LC/MS of the alkali-treated cyclic peptide aqueous solution, and the molecule stability was evaluated according to the following evaluation standards. It is preferable that the evaluation result satisfies the evaluation standard A, B, or C.
The conditions of the LC/MS used for the evaluation of molecule stability were set as follows. • LC apparatus: Prominence series (pump, column oven, autosampler, detector) (manufactured by Shimadzu Corporation) • MS detector: LC/MS2010EV (manufactured by Shimadzu Corporation) • Column: Cadenza CD-C18, inner diameter 2.0 mm×length 250 mm, particle size: 3 μm (manufactured by Imtakt Corporation) • Eluent A: a solution (pH 3) containing 10 mM ammonium formate as a solute, where the solvent is 100% water. • Eluent B: a solution (pH 3) containing 10 mM ammonium formate as a solute, where the solvent is acetonitrile/water=90/10. • Flow rate: 0.2 mL/min • Injection volume: 4 μL • Gradient: 0% to 30%: Eluent B (0 to 30 minutes), 100%: Eluent B (30 to 40 minutes), 0%: Eluent B (40 to 60 minutes)(B indicates the eluent B) • Column temperature: 45° C. • Ionization method: electrospray ionization (ESI) positive, ESI negative

Sequence of human integrin αvβ5 (P06756 31-889 limits assumed): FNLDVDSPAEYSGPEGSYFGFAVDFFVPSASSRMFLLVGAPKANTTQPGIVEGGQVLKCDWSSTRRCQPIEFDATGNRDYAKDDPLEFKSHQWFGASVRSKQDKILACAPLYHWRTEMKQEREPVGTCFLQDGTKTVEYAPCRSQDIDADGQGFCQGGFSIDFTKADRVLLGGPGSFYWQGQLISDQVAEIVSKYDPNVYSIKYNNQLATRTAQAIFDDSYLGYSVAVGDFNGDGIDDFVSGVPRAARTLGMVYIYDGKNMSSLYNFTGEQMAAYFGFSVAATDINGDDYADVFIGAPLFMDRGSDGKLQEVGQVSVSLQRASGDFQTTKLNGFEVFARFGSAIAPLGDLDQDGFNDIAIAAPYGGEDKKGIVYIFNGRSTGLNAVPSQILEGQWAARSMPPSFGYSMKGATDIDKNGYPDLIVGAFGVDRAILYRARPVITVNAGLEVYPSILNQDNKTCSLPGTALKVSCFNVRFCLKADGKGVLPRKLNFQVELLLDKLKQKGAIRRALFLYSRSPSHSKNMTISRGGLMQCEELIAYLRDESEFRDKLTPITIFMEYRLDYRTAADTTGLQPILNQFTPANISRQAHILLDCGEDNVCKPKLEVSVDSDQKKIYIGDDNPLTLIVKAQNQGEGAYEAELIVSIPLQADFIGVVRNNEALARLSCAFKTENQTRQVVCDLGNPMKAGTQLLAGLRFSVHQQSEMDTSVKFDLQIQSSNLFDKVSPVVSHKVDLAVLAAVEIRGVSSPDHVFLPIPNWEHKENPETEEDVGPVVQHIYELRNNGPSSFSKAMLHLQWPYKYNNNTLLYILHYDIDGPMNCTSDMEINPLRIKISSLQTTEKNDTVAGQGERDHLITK
Sequence of human integrin αvβ5 (P06756 891-1048 partner limits assumed): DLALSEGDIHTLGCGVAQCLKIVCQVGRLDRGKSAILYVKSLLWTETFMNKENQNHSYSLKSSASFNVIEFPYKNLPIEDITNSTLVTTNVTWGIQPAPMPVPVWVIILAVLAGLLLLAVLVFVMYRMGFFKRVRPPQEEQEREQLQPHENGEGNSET
Sequence of human integrin αvβ5 (P18084 24-799): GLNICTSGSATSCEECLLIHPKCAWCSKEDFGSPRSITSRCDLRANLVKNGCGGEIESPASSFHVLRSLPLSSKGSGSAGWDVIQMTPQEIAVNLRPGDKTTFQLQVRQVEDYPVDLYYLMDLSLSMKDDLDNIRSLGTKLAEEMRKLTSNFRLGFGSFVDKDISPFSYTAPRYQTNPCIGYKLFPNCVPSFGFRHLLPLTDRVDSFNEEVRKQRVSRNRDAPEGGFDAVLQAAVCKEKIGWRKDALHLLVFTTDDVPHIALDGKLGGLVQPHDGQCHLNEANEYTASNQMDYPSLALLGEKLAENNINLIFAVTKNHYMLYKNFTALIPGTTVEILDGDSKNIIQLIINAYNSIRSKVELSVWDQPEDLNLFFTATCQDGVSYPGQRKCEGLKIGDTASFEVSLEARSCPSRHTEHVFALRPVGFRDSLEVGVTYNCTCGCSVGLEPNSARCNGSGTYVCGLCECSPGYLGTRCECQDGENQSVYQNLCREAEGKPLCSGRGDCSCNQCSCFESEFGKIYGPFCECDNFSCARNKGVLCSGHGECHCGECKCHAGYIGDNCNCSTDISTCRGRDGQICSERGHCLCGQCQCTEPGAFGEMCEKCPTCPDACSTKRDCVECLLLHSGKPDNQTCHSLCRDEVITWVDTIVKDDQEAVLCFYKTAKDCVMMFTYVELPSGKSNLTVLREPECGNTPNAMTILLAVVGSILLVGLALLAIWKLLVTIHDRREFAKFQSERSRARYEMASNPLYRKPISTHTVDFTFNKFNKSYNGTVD

| SMILES | Kd (human integrin αvβ5) [nM] | Molecule stability (cyclic peptide residual rate) [1] |
| --- | --- | --- |
| CC[C@H](C)[C@@H]1NC(=O)CSCC[C@@H](C(=O)N[C@@H](CCCCN)C(=O)N[C@@H](CCCCN)C(=O)N[C@@H](CCCCN)C(=O)O)NC(=O)[C@H](Cc2ccccc2)NC(=O)[C@@H]2CCCCNC(=O)CSCC[C@H](NC1=O)C(=O)N[C@@H](CCCNC(=N)N)C(=O)NCC(=O)N[C@@H](CC(=O)O)C(=O)N2 [Cyclic peptide 11] ({CH2CO}-I[hCys]RGDKF[hCys]KKK-OH; linker 2-6 via X1; thioether N-8) | < 50 | A (The residual rate of the cyclic peptide is 70% or more.) |
| CC[C@H](C)[C@@H]1NC(=O)CSC[C@@H](C(=O)N[C@@H](CCCCN)C(=O)N[C@@H](CCCCN)C(=O)N[C@@H](CCCCN)C(=O)O)NC(=O)[C@H](Cc2ccccc2)NC(=O)[C@@H]2CCCCNC(=O)CSC[C@H](NC1=O)C(=O)N[C@@H](CCCNC(=N)N)C(=O)NCC(=O)N[C@@H](CC(=O)O)C(=O)N2 [Cyclic peptide 12] ({CH2CO}-ICRGDKFCKKK-OH; linker 2-6 via X1; thioether N-8) | < 50 | B (The residual rate of the cyclic peptide is 50% or more and less than 70%.) |
| CC[C@H](C)[C@@H]1NC(=O)CSC[C@@H](C(=O)N[C@@H](CCCCN)C(=O)N[C@@H](CCCCN)C(=O)N[C@@H](CCCCN)C(=O)O)NC(=O)[C@H](Cc2ccccc2)NC(=O)[C@@H]2CCSCC(=O)NC[C@H](NC1=O)C(=O)N[C@@H](CCCNC(=N)N)C(=O)NCC(=O)N[C@@H](CC(=O)O)C(=O)N2 [Cyclic peptide 13] ({CH2CO}-I[Dap]RGD[hCys]FCKKK-OH; linker 2-6 via X2; thioether N-8) | 50 to 100 | A (The residual rate of the cyclic peptide is 70% or more.) |
| CC[C@H](C)[C@@H]1NC(=O)CSCC[C@@H](C(=O)N[C@@H](CCCCN)C(=O)N[C@@H](CCCCN)C(=O)N[C@@H](CCCCN)C(=O)O)NC(=O)[C@H](Cc2ccccc2)NC(=O)[C@@H]2CSCC(=O)NC[C@H](NC1=O)C(=O)N[C@@H](CCCNC(=N)N)C(=O)NCC(=O)N[C@@H](CC(=O)O)C(=O)N2 [Cyclic peptide 14] ({CH2CO}-I[Dap]RGDCF[hCys]KKK-OH; linker 2-6 via X2; thioether N-8) | < 50 | A (The residual rate of the cyclic peptide is 70% or more.) |
| CC[C@H](C)[C@@H]1NC(=O)CSC[C@@H](C(=O)N[C@@H](CCCCN)C(=O)N[C@@H](CCCCN)C(=O)N[C@@H](CCCCN)C(=O)O)NC(=O)[C@H](Cc2ccccc2)NC(=O)[C@@H]2CCSCC(=O)NCCC[C@H](NC1=O)C(=O)N[C@@H](CCCNC(=N)N)C(=O)NCC(=O)N[C@@H](CC(=O)O)C(=O)N2 [Cyclic peptide 15] ({CH2CO}-I[Orn]RGD[hCys]FCKKK-OH; linker 2-6 via X2; thioether N-8) | < 50 | A (The residual rate of the cyclic peptide is 70% or more.) |
| CC[C@H](C)[C@@H]1NC(=O)CSCC[C@@H](C(=O)N[C@@H](CCCCN)C(=O)N[C@@H](CCCCN)C(=O)N[C@@H](CCCCN)C(=O)O)NC(=O)[C@H](Cc2ccccc2)NC(=O)[C@@H]2CSCC(=O)NCCC[C@H](NC1=O)C(=O)N[C@@H](CCCNC(=N)N)C(=O)NCC(=O)N[C@@H](CC(=O)O)C(=O)N2 [Cyclic peptide 16] ({CH2CO}-I[Orn]RGDCF[hCys]KKK-OH; linker 2-6 via X2; thioether N-8) | < 50 | A (The residual rate of the cyclic peptide is 70% or more.) |
| CC[C@H](C)[C@@H]1NC(=O)CSC[C@@H](C(=O)N[C@@H](CCCCN)C(=O)N[C@@H](CCCCN)C(=O)N[C@@H](CCCCN)C(=O)O)NC(=O)[C@H](Cc2ccccc2)NC(=O)[C@@H]2CCCCNC(=O)CSCC[C@H](NC1=O)C(=O)N[C@@H](CCCNC(=N)N)C(=O)NCC(=O)N[C@@H](CC(=O)O)C(=O)N2 [Cyclic peptide 17] ({CH2CO}-I[hCys]RGDKFCKKK-OH; linker 2-6 via X1; thioether N-8) | < 50 | A (The residual rate of the cyclic peptide is 70% or more.) |
| CC[C@H](C)[C@@H]1NC(=O)CSCC[C@@H](C(=O)N[C@@H](CCCCN)C(=O)N[C@@H](CCCCN)C(=O)N[C@@H](CCCCN)C(=O)O)NC(=O)[C@H](Cc2ccccc2)NC(=O)[C@@H]2CCCCNC(=O)CSC[C@H](NC1=O)C(=O)N[C@@H](CCCNC(=N)N)C(=O)NCC(=O)N[C@@H](CC(=O)O)C(=O)N2 [Cyclic peptide 18] ({CH2CO}-ICRGDKF[hCys]KKK-OH; linker 2-6 via X1; thioether N-8) | < 50 | A (The residual rate of the cyclic peptide is 70% or more.) |
| CC[C@H](C)[C@@H]1NC(=O)CSC[C@@H](C(=O)N[C@@H](CCCCN)C(=O)N[C@@H](CCCCN)C(=O)N[C@@H](CCCCN)C(=O)O)NC(=O)[C@H](Cc2ccccc2)NC(=O)[C@@H]2CCNC(=O)CSCC[C@H](NC1=O)C(=O)N[C@@H](CCCNC(=N)N)C(=O)NCC(=O)N[C@@H](CC(=O)O)C(=O)N2 [Cyclic peptide 19] ({CH2CO}-I[hCys]RGD[Dab]FCKKK-OH; linker 2-6 via X1; thioether N-8) | 50 to 100 | A (The residual rate of the cyclic peptide is 70% or more.) |
| CC[C@H](C)[C@@H]1NC(=O)CSCC[C@@H](C(=O)N[C@@H](CCCCN)C(=O)N[C@@H](CCCCN)C(=O)N[C@@H](CCCCN)C(=O)O)NC(=O)[C@H](Cc2ccccc2)NC(=O)[C@@H]2CCNC(=O)CSC[C@H](NC1=O)C(=O)N[C@@H](CCCNC(=N)N)C(=O)NCC(=O)N[C@@H](CC(=O)O)C(=O)N2 [Cyclic peptide 20] ({CH2CO}-ICRGD[Dab]F[hCys]KKK-OH; linker 2-6 via X1; thioether N-8) | < 50 | A (The residual rate of the cyclic peptide is 70% or more.) |
| CC[C@H](C)[C@@H]1NC(=O)CSCC[C@@H](C(=O)N[C@@H](CCCCN)C(=O)O)NC(=O)[C@H](Cc2ccccc2)NC(=O)[C@@H]2CCCCNC(=O)CSCC[C@H](NC1=O)C(=O)N[C@@H](CCCNC(=N)N)C(=O)NCC(=O)N[C@@H](CC(=O)O)C(=O)N2 [Cyclic peptide 22] ({CH2CO}-I[hCys]RGDKF[hCys]K-OH; linker 2-6 via X1; thioether N-8) | < 50 | A (The residual rate of the cyclic peptide is 70% or more.) |
| CC[C@H](C)[C@@H]1NC(=O)CSC(C)(C)[C@@H](C(=O)N[C@@H](CCCCN)C(=O)N[C@@H](CCCCN)C(=O)N[C@@H](CCCCN)C(=O)O)NC(=O)[C@H](Cc2ccccc2)NC(=O)[C@@H]2CCSCC(=O)NCCC[C@H](NC1=O)C(=O)N[C@@H](CCCNC(=N)N)C(=O)NCC(=O)N[C@@H](CC(=O)O)C(=O)N2 [Cyclic peptide 23] ({CH2CO}-I[Orn]RGD[hCys]F[Pen]KKK-OH; linker 2-6 via X2; thioether N-8) | < 50 | A (The residual rate of the cyclic peptide is 70% or more.) |
